Laboratory results published in patent US11446270B2, “Leonurine crystal and use thereof in preparation of insulin sensitizer, hypoglycemic drug and lipid-lowering drug” (ZHUHAI HENGQIN NEW DISTRICT ZHONGZHU ZHENGTAI MEDICAL …, priority 2017, dated 2022).
“Also recorded” adds a separate entry of the source.

System: New Zealand white rabbit
Experiment: Serum lipids in hyperlipidemia New Zealand rabbits on high fat diet
Format: in vivo
Details: 12 weeks
Description: Forty-eight male New Zealand rabbits weighed 1.8 to 2.2 kg were housed under 12 h dark-12 h light cycles and allowed food and water ad libitum to adapt to the housing environment for one week, and then randomly divided into 6 groups: • 1) Control group (Normal diet, n=8); Administered intragastrically with ultrapure water; • 2) Model group (High fat diet, n=8); Administered intragastrically with ultrapure water; • 3) Leonurine crystal form A in low dose group (High fat diet, n=8); Administered intragastrically at a dose of 4 mg/kg/day; • 4) Leonurine crystal form A in middle dose group (High fat diet, n=8); Administered intragastrically at a dose of 8 mg/kg/day; • 5) Leonurine crystal form A in high dose group (High fat diet, n=8); […] Administered intragastrically at a dose of 2.5 mg/kg/day; Rabbits were weighed before administered drugs every week, where the dosage of the drug for rabbits is calculate according to the weight; and housed in an air-conditioned room under (24±1° C. room temperature and 55±5% air humidity) and allowed enough food and water ad libitum. After 12 weeks of administration, the rabbits were fasted for 12 h, and blood (2 ml) was drawn from the marginal ear vein for hematology analysis. Hematology analysis: blood samples were let for standing for 2 h and centrifuged (3000 rpm, 10 min, 4° C.) to obtain serum. The serum samples were tested according to the protocols recommended by Nanjing Jiancheng Bioengineering Institute. The total cholesterol (TC), triacylglycerol (TG), low-density cholesterol (LDL-C) and […] (HDL-C) levels in the serum samples were assessed using automatic microplate reader and automatic biochemical analyzer. Statistical analysis: GraphPad Prism 5 software was used to analyze and draw figure. Results were expressed as the mean±standard (mean±SD), and statistical analysis was performed by one-way analysis of variance (ANOVA) or student's t test. A difference with P<0.05 was considered statistically significant. Statistical significance was set at *P<0.05, **P<0.01, ***P<0.001 versus the model group.

[1] = dose not stated, listed as leonurine crystal form A
[2] = high dose group 16 mg/kg/day intragastric, vs model group

## COc1cc(C(=O)OCCCCNC(=N)N)cc(OC)c1O [crystal form A, 4-guanidino-1-butyl 4-hydroxy-3,5-dimethoxybenzoate]
[1]
  serum total cholesterol (TC): reduce; also recorded: decrease
  serum triglycerides / total triacylglycerol (TG): reduce; also recorded: decrease
[2]
  serum total cholesterol (TC): reduced
  serum triacylglycerol (TG): reduced
Middle dose group 8 mg/kg/day intragastric, vs model group
  serum triacylglycerol (TG): reduced
